In ChEMBL document CHEMBL1201862, “PubChem BioAssay data set” (2004):
Activity calls are given as the source filed them.

Columns and labels:
[1] = A Cell Based Secondary Assay To Explore Cytotoxicity of Compounds that Sensitize Mycobacterium Tuberculosis to Beta-Lactam Antibiotics.; format: functional
[2] = target: T1, Long-chain-fatty-acid--AMP ligase FadD28 (Mycobacterium tuberculosis, UniProt P9WQ59); experiment: Fluorescence polarization aasay to screen for inhibitors that compete for the binding of FadD28 to a bisubstrate Measured in Biochemical System Using Plate Reader - 2147-01_Inhibitor_Dose_CherryPick_Activity.; format: functional, Mycobacterium tuberculosis H37Rv
T1 sequence (P9WQ59 whole entry): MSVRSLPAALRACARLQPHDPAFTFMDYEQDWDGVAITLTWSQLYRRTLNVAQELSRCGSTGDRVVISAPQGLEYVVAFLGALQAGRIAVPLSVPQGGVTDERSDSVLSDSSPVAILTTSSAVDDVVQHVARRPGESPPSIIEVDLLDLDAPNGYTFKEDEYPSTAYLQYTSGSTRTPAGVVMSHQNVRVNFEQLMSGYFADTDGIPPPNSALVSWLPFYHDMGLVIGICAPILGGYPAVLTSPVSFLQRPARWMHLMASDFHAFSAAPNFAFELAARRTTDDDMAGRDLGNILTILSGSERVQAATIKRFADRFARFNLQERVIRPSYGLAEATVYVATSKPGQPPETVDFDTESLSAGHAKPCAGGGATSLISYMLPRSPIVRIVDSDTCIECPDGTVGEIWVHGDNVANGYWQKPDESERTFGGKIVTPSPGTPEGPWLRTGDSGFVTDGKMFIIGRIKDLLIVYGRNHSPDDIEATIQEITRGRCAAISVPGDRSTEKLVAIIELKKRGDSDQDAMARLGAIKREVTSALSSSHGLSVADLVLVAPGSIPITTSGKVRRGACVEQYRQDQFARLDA

[3] = target: Nonstructural protein 1 (Influenza A virus, UniProt Q194T2); format: functional, Influenza A virus (A/California/07/2009(H1N1))
Sequence of Nonstructural protein 1 (Q194T2 whole entry): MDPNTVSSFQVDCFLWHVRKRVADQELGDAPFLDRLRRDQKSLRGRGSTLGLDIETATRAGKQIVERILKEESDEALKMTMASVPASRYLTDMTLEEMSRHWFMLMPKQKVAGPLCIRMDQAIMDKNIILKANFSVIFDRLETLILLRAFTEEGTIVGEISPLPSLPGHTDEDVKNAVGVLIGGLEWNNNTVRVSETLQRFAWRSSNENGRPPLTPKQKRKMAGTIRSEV

[4] = A cytotoxicity screen of small molecule inhibitors of the PhoP region in Salmonella typhi identified in the primary screen. [Related pubchem assays: 1850, 1864, 1985 ]; format: functional
[5] = target: T2, Polyadenylate-binding protein 1 (Homo sapiens, UniProt P11940); experiment: MLLE binding blockers, Cy5 peptide tracer – biochemical, fluorescence polarization, Cy5-PAM2 peptide, secondary, miRNA deadenylation inhibitor project, dose response (AID 602260); format: functional; conditions: read-out: IC50_Mean
T2 sequence (P11940 whole entry, the tested form may be a part): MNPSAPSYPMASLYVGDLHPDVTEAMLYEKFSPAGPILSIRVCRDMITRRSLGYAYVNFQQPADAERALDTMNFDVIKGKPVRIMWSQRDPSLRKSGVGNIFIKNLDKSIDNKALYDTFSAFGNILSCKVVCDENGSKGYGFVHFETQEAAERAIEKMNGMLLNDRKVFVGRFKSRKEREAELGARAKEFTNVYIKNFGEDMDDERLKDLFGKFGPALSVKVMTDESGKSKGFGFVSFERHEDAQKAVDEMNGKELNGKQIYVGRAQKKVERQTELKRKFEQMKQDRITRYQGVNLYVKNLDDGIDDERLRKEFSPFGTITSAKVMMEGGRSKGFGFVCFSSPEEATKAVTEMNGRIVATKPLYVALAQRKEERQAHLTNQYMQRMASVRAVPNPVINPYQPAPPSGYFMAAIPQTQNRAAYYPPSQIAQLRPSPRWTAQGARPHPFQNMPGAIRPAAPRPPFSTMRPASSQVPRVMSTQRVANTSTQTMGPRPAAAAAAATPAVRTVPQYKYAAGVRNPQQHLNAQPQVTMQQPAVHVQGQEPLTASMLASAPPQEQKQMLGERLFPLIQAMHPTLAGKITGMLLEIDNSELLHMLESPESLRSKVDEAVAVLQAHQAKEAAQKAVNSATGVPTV

[6] = target: T2, Polyadenylate-binding protein 1; experiment: MLLE domain peptide-binding blockers, IC50 – biochemical, fluorescence polarization, FITC-PAM2 peptide, dose response (AID 602259); format: functional; conditions: read-out: IC50_Mean
[7] = system: HEK293; experiment: NOD2 signaling inhibitors in MDP-stimulated cells, cell-based, uHTS, luminescence (AID 2001); format: functional; conditions: Homo sapiens
[8] = system: HEK293; experiment: cells; format: functional, cell-based; conditions: Homo sapiens
[9] = system: HEK293; experiment: cells; format: functional, cell-based; conditions: Homo sapiens; remark: listed apart in the source
[10] = system: INS1; experiment: INS-1E survival protection against cytokine death – cell-based, luminescence, retest, dose response (AID 449756); format: functional; conditions: Rattus norvegicus;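 note: cell death triggered by IL-1 beta plus TNF-alpha plus IFN-gamma mixture; protective hits raise ATP signal compared with cytokine alone wells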
[11] = target: Nucleotide-binding oligomerization domain-containing protein 2 (Homo sapiens, UniProt Q9HC29); experiment: inhibition of NOD2-driven NF-kB reporter – cell-based, luminescence, uHTS, HEK293 (AID 1566); format: functional
Sequence of Nucleotide-binding oligomerization domain-containing protein 2 (Q9HC29 whole entry, the tested form may be a part): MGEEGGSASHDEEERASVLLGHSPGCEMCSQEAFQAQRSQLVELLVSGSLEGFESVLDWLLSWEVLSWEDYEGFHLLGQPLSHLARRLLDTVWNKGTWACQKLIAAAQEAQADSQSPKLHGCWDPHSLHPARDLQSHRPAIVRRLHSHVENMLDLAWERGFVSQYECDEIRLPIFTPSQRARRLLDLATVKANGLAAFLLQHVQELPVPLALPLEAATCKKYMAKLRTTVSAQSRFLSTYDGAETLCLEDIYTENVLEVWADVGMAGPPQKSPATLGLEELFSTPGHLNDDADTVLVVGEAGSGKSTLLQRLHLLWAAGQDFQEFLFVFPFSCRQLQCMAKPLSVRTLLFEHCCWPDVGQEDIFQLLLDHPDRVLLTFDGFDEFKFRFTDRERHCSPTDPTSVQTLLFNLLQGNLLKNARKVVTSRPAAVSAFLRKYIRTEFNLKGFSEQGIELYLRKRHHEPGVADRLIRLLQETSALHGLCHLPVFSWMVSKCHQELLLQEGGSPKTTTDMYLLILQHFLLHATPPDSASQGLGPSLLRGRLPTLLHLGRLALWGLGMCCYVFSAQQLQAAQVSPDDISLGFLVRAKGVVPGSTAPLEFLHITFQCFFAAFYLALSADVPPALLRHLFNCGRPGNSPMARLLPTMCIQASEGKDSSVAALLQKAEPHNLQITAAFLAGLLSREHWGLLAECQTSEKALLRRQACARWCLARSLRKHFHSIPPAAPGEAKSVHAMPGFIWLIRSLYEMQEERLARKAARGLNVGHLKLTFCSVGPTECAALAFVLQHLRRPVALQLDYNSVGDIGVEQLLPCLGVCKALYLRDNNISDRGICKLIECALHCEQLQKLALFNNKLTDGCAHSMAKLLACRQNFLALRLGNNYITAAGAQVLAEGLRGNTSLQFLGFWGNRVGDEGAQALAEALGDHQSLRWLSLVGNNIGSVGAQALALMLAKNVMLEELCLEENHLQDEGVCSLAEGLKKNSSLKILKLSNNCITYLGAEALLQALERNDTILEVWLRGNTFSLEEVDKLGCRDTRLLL

[12] = system: HEK293; experiment: inhibition of NOD1-driven NF-kB reporter – cell-based, luminescence, uHTS, primary screen (AID 1578); format: functional; conditions: Homo sapiens
[13] = Luminescence Cell-Based Dose Retest to Confirm Inhibitors of Cancer Stem Cells. [Related pubchem assays (depositor defined):AID2717, AID2721]; format: functional; conditions: Homo sapiens
[14] = system: HEK293; experiment: cells; format: functional, cell-based; conditions: Homo sapiens; remark: listed apart in the source
[15] = P. falciparum Dd2 growth inhibitors, dose response, SYBR Green, cherry-picked samples (AID 1159567); format: functional, cell-based
[16] = Dd2 malaria parasite growth inhibition potency – SYBR Green, dry powder samples, dose response (AID 1159566); format: functional, cell-based;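 note: potency for growth inhibition with lower SYBR green DNA signal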
[17] = growth inhibition of yeast DHODH-expressing 3D7 parasites – SYBR Green, dry powder samples, dose response (AID 1159570); format: functional, cell-based;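 note: parasite growth measured after 72 hours of compound exposure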
[18] = growth inhibition of PfATP4-mutant resistant parasites – NITD609-resistant line, SYBR Green, dry powder, dose response (AID 1159571); format: functional, cell-based;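 note: parasites synchronized at ring stage by sorbitol before testing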
[19] = target: Melanin-concentrating hormone receptor 1 (Homo sapiens, UniProt Q99705); experiment: Fluorescence-based counterscreen for antagonists of the G-protein coupled receptor 7 (GPR7): cell-based high throughput dose response assay to identify antagonists of the melanin-concentrating hormone receptor 1 (MCHR1).; format: functional
Sequence of Melanin-concentrating hormone receptor 1 (Q99705 whole entry): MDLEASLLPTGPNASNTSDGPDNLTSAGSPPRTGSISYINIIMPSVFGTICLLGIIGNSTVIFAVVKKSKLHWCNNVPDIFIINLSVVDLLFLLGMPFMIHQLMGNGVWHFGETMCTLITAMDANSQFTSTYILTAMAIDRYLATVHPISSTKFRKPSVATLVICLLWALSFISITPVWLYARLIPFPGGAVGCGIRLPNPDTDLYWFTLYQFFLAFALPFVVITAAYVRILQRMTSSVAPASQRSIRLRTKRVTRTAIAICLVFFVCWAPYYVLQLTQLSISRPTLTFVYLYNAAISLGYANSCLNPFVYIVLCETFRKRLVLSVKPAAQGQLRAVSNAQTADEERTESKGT

[20] = target: T3, Neuropeptides B/W receptor type 1 (Homo sapiens, UniProt P48145); experiment: Fluorescence-based dose response cell-based high throughput screening assay to identify antagonists of the G-protein coupled receptor 7 (GPR7). [Related pubchem assays: 1952 (Screening assay (GPR7 antagonists).), 1880 (Summary AID.)]; format: functional
T3 sequence (P48145 whole entry): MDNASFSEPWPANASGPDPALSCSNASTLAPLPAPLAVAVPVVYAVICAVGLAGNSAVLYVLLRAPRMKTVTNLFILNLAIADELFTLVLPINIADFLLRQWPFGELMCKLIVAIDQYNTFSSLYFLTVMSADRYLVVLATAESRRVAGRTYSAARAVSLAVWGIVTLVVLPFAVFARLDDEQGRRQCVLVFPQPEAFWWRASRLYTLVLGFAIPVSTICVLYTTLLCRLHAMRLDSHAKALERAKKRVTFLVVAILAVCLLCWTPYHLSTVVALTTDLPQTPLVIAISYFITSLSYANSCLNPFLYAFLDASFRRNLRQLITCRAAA

## C=CCc1cc(Cl)ccc1OCCCNC(C)CC (centres undefined)
[1]
  CC50: > 40 µM (active)

## O=C(NN1C(=O)/C(=C/c2nc3ccccc3[nH]2)SC1=S)c1ccccc1
[2]
  AC50: 70.5 µM (active)
[3]
  IC50: > 100 µM (active)

## Nc1c(-c2ccccc2)sc2ccc3ccccc3[n+]12
[4]
  EC50: > 50 µM (active)
[5]
  IC50: > 66 µM (inactive)
[6]
  IC50: > 66 µM (inactive)

## Cc1ncc(CCl)c2c1OC(C)(C)OC2
[1]
  CC50: > 40 µM (active)

## CC(C)(C)C1CCC2(CC1)C(C#N)=C(SCC(=O)NC1CCCCC1)NC(=O)C2C#N (centres undefined)
[7]
  IC50: 9.18 µM (active)
[8]
  IC50: 9.32 µM (active)
[9]
  IC50: > 20 µM (inactive)
[10]
  AC50: 8.73 µM (active)
[11]
  EC50: 17.6 µM (active)
[12]
  EC50: 6.58 µM (active)
[13]
  AC50: 6.34 µM (active)
[14]
  IC50: 13.6 µM (active)

## Cc1cccc(NC(=O)Cn2c(=O)oc3cc(S(=O)(=O)N4CCCC4)ccc32)n1
[2]
  AC50: 34.8 µM (active)

## c1cc(N2CCCC2)ccc1C(c1nnnn1C1CCCCC1)N1CCOCC1 (centres undefined)
[4]
  EC50: > 50 µM (active)

## CC(C)(C)[S+]([O-])N1Cc2cc(C(=O)NCc3ccc(Oc4ccccc4)cc3)nc(-c3cccc(-c4cccc(F)c4)c3)c2[C@@H]1CCO (some centres undefined)
[15]
  AC50: 1.23 µM (active)
[16]
  AC50: 0.658 µM (active)
[17]
  AC50: 0.831 µM (active)
[18]
  AC50: 0.417 µM (active)

## CCc1ccc(N(C(=O)c2csnn2)C(C(=O)NC2CCCCC2)c2ccncc2)cc1 (centres undefined)
[19]
  IC50: > 43.8 µM (not active)
[20]
  IC50: > 43.8 µM (not active)

## N=C(NC(=O)c1ccccc1NC(=O)c1ccccc1)Nc1nc2ccccc2o1
[1]
  CC50: > 40 µM (active)
